Values quoted from earlier work as cited in patent publication EP1450788B1, “USE OF COUMARIN OR ITS HYDROXY DERIVATIVE FOR THE TREATMENT OF MEDIUM OR SEVERE VASCULAR AND/OR LYMPHATIC EDEMA” (priority 2001, dated 2003).

Key:
hepatic tissue = conditions: oral doses of about 200 mg/day
[1] = tested on: lymphoedema of the upper limbs; conditions: 90 mg/day versus 135 mg/day; lymphoedema of the upper limbs secondary to surgery and irradiation for breast cancer

SMILES	haematic levels by the transdermic route (transdermal administration)	cytosolytic hepatocytic enzymes in the plasma (biochemical markers of the hepatic damage) (hepatic tissue)	clinical efficacy (apparent benefits of the two coumarin dosages) [1]	haematic levels, transdermal route relative to oral route (transdermal administration versus oral route)
O=c1ccc2ccc(O)cc2o1 [7-hydroxy-coumarin, 7-hydroxycoumarin]	a decrease of the haematic levels			
O=c1ccc2ccccc2o1 [coumarin, 5,6-benzopyran-2-one]		high concentrations	No difference was found	10 fold
